Measurements taken from patent US20250312462A1, “PAK1 DEGRADERS AND METHODS OF USE THEREOF” (INSTITUTE FOR CANCER RESEARCH D/B/A THE RESEARCH INSTITUTE …, priority 2022, published 2025).

Assays:
Assay in all cases: KINOMEscan
Settings in all cases: read-out: Percent Control
FES = FES (Homo sapiens, UniProt P07332)
Description: (§1) The kinase engagement assay (KINOMEscan®) was performed by DiscoverX assessing binding abilities toward a set of kinases.

TLK1 = TLK1 (Homo sapiens, UniProt Q9UKI8)
Description: as §1

NDR2 = NDR2 (Homo sapiens, UniProt Q9Y2H1)
Description: as §1

MARK2 = MARK2 (Homo sapiens, UniProt Q7KZI7)
Description: as §1

TNNI3K = TNNI3K (Homo sapiens, UniProt Q59H18)
Description: as §1

IRAK4 = IRAK4 (Homo sapiens, UniProt Q9NWZ3)
Description: as §1

PFCDPK1(P. falciparum) = molecular target: T1, PFCDPK1(P. falciparum) (Plasmodium falciparum, UniProt P62344); assay type: binding
T1 construct: purchased DiscoverX
T1 sequence (P62344 whole entry): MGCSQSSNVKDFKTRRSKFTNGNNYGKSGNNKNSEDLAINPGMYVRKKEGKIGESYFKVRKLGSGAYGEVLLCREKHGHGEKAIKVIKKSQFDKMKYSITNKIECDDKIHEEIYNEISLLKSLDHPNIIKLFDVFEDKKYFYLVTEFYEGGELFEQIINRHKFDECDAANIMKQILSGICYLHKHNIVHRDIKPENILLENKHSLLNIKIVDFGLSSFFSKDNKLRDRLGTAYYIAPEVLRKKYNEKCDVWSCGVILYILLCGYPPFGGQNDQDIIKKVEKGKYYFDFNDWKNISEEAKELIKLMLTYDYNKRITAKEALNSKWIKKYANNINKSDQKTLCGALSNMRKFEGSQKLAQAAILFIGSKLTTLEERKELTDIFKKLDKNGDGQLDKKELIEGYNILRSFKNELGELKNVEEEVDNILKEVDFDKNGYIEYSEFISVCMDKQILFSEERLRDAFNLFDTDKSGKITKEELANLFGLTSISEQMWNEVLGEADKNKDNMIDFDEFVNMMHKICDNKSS

MAP3K1 = MAP3K1 (Homo sapiens, UniProt Q13233)
Description: as §1

PAK6 = PAK6 (Homo sapiens, UniProt Q9NQU5)
Description: as §1

PFPK5(P. falciparum) = molecular target: T2, PFPK5(P. falciparum) (Plasmodium falciparum, UniProt P61075); assay type: binding
T2 construct: purchased DiscoverX

KIT(L576P) = KIT(L576P) (Homo sapiens, UniProt P10721, L576P)
Sequence of KIT(L576P) (P10721 26-976 L576P): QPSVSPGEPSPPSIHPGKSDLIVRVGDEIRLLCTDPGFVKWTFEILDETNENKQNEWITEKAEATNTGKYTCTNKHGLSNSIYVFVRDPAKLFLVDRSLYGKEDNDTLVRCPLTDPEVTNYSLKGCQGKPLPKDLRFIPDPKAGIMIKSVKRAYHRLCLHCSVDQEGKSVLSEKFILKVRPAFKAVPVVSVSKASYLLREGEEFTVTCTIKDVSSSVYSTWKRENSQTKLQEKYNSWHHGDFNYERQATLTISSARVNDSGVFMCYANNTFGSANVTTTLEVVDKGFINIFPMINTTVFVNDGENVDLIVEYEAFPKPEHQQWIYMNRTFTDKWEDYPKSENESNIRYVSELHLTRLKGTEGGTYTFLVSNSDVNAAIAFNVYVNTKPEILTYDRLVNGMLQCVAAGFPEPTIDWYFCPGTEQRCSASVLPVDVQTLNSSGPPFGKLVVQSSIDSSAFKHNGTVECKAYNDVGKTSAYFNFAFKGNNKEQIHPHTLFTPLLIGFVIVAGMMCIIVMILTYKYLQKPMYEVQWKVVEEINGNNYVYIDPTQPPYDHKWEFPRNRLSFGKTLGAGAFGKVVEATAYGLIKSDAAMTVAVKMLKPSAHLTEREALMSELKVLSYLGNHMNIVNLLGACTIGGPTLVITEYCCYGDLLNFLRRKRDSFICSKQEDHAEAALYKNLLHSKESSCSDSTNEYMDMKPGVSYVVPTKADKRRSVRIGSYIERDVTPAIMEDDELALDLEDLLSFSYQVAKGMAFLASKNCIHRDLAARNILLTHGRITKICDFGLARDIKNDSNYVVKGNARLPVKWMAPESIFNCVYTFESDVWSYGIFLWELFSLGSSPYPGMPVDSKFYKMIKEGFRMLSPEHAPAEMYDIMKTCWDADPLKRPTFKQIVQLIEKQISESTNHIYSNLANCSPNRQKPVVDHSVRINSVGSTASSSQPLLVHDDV
Description: as §1

DYRK1B = DYRK1B (Homo sapiens, UniProt Q9Y463)
Description: as §1

[1] = molecular target: ABL1(T315I)-nonphosphorylated (Homo sapiens, UniProt P00519, T315I)
Description: as §1

PRKD3 = PRKD3 (Homo sapiens, UniProt O94806)
Description: as §1

EIF2AK1 = EIF2AK1 (Homo sapiens, UniProt Q9BQI3)
Description: as §1

[2] = molecular target: RPS6KA5(Kin.Dom.2-C-terminal) (Homo sapiens, UniProt O75582)
Sequence of RPS6KA5(Kin.Dom.2-C-terminal) (O75582 426-687 limits assumed): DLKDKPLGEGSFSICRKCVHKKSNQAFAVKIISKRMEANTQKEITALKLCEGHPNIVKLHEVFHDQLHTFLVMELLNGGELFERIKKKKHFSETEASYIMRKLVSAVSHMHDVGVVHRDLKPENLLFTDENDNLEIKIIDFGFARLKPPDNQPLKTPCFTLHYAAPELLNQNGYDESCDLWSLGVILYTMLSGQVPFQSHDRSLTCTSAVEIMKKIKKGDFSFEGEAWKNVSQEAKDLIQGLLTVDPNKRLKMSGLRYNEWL
Description: as §1

PIKFYVE = PIKFYVE (Homo sapiens, UniProt Q9Y2I7)
Description: as §1

EGFR(G719S) = EGFR(G719S) (Homo sapiens, UniProt P00533, G719S)
Description: as §1

AMPK-alpha1 = AMPK-alpha1 (Homo sapiens, UniProt Q13131)
Sequence of AMPK-alpha1 (Q13131 whole entry): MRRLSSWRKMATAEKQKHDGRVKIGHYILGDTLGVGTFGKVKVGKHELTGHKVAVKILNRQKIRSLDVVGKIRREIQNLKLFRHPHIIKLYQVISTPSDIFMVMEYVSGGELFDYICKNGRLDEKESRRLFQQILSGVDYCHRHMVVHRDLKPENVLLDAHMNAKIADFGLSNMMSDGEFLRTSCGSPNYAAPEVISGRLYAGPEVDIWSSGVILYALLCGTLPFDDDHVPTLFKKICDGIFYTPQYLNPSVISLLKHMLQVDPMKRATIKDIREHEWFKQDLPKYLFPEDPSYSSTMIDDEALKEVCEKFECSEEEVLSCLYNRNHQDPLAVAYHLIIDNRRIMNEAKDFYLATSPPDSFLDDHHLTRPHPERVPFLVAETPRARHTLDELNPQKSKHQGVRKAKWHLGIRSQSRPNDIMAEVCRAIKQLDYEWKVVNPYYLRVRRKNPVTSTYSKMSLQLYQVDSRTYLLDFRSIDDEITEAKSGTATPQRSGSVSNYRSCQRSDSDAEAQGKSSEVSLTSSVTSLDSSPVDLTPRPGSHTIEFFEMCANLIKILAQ
Description: as §1

MARK4 = MARK4 (Homo sapiens, UniProt Q96L34)
Description: as §1

BMPR1A = BMPR1A (Homo sapiens, UniProt P36894)
Description: as §1

PLK1 = PLK1 (Homo sapiens, UniProt P53350)
Sequence of PLK1 (P53350 whole entry): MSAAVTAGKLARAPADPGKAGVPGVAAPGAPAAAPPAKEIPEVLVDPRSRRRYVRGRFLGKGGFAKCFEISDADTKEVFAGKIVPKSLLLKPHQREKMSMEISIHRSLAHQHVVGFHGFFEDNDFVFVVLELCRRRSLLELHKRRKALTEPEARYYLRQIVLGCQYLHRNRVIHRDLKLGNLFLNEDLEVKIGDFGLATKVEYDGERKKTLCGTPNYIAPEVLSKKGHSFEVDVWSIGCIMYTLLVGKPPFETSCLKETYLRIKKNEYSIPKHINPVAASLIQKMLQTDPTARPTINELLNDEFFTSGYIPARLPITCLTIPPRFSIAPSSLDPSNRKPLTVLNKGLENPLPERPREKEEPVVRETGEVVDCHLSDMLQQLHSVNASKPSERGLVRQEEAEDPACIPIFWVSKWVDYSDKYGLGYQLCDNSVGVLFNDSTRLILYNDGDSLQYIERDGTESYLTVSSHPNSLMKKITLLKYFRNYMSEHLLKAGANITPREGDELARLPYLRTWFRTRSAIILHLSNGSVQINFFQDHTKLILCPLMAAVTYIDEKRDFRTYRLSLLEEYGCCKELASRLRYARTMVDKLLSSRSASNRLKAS
Description: as §1

NEK11 = NEK11 (Homo sapiens, UniProt Q8NG66)
Description: as §1

ALK = ALK (Homo sapiens, UniProt Q9UM73)
Description: as §1

SNARK = SNARK (Homo sapiens, UniProt Q9H093)
Description: as §1

TIE1 = TIE1 (Homo sapiens, UniProt P35590)
Description: as §1

[3] = molecular target: RSK3(Kin.Dom.1-N-terminal) (Homo sapiens, UniProt Q15349)
Description: as §1

FLT3 = FLT3 (Homo sapiens, UniProt P36888)
Description: as §1

TSSK1B = TSSK1B (Homo sapiens, UniProt Q9BXA7)
Description: as §1

ASK2 = ASK2 (Homo sapiens, UniProt O95382)
Description: as §1

[4] = molecular target: JAK3(JH1domain-catalytic) (Homo sapiens, UniProt P52333)
Description: as §1

PRKCI = PRKCI (Homo sapiens, UniProt P41743)
Description: as §1

MET(Y1235D) = MET(Y1235D) (Homo sapiens, UniProt P08581, Y1235D)
Description: as §1

[5] = molecular target: ABL1(Q252H)-phosphorylated (Homo sapiens, UniProt P00519, Q252H)
Description: as §1

CDK4-cyclinD1 = CDK4-cyclinD1 (Homo sapiens, UniProt P11802)
Sequence of CDK4-cyclinD1 (P11802 whole entry): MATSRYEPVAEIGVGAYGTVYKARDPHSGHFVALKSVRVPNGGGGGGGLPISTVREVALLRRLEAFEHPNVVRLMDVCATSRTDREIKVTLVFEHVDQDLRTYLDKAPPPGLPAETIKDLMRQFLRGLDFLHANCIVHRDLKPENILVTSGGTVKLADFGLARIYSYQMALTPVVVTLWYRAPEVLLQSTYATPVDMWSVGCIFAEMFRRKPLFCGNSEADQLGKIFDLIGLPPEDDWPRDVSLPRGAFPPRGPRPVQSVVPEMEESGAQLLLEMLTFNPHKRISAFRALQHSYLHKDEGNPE
Sequence of CDK4-cyclinD1 (P24385 whole entry partner): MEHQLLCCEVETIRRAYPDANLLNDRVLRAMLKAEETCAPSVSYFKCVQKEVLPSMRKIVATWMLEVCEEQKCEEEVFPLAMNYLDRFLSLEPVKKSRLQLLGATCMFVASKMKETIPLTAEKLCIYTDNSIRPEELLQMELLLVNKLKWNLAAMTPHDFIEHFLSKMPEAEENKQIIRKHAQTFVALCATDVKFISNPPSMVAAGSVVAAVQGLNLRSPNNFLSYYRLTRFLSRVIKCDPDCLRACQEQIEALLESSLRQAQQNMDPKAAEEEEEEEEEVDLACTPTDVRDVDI
Description: as §1

CDC2L5 = molecular target: T3, CDC2L5 (Homo sapiens, UniProt Q14004); assay type: binding
T3 construct: purchased DiscoverX
T3 sequence (Q14004 whole entry): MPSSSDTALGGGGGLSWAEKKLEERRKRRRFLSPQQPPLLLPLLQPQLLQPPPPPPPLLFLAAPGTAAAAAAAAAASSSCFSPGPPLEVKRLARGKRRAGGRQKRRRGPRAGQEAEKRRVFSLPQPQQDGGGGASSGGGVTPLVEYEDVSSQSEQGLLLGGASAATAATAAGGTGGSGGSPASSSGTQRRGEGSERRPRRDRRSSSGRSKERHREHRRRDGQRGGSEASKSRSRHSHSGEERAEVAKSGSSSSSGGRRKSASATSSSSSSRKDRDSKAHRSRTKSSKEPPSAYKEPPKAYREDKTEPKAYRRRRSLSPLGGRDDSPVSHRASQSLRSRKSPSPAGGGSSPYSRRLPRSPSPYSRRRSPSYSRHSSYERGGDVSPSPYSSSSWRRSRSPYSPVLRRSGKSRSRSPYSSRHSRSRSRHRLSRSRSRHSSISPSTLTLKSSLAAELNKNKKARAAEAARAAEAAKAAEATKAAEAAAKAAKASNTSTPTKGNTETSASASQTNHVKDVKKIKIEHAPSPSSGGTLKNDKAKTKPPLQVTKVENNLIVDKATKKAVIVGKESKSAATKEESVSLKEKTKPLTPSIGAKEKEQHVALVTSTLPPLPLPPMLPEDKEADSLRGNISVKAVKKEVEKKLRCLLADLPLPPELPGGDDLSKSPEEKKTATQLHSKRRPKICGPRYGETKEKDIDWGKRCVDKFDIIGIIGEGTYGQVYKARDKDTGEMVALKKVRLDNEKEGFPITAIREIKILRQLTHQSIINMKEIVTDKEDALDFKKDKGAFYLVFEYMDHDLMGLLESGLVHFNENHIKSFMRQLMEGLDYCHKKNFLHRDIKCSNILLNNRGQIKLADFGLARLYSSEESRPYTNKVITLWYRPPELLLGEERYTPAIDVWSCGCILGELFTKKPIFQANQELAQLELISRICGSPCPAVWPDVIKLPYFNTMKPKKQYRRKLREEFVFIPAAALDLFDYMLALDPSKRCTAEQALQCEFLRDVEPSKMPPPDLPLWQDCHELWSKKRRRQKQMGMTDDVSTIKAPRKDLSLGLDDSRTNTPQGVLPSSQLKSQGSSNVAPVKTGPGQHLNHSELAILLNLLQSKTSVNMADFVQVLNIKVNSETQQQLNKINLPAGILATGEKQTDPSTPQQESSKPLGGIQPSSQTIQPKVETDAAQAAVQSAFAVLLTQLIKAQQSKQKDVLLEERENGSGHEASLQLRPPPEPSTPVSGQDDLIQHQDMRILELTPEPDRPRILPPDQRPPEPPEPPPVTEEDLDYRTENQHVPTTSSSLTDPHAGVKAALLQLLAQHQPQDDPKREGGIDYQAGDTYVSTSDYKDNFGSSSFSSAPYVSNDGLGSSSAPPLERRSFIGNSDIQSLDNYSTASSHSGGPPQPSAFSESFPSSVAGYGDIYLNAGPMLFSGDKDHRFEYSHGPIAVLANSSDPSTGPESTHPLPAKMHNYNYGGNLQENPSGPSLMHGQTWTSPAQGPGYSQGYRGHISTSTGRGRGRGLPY

[6] = molecular target: TYK2(JH1domain-catalytic) (Homo sapiens, UniProt P29597)
Description: as §1

## O=C1CCC(N2C(=O)c3cccc(NCCCCCCCCNC(=O)N4CC[C@H](NC5=Nc6cc(F)ccc6N(CC(F)F)c6ccc(Cl)cc65)C4)c3C2=O)C(=O)N1 (stereo partly drawn) [BJG-05-039, (3S)-3-((2-Chloro-5-(2,2-difluoroethyl)-8-fluoro-5H-dibenzo[b,e][1,4]diazepin-11-yl)amino)-N-(8-((2-(2,6-dioxopiperidin-3-yl)-1,3-dioxoisoindolin-4-yl)amino)octyl)pyrrolidine-1-carboxamide]
FES
  remaining binding at 10 µM: 86%
TLK1
  remaining binding at 10 µM: 46%
NDR2
  remaining binding at 10 µM: 45%
MARK2
  remaining binding at 10 µM: 38%
TNNI3K
  remaining binding at 10 µM: 82%
IRAK4
  remaining binding at 10 µM: 100%
PFCDPK1(P. falciparum)
  remaining binding at 10 µM: 98%
MAP3K1
  remaining binding at 10 µM: 100%
PAK6
  remaining binding at 10 µM: 99%
PFPK5(P. falciparum)
  remaining binding at 10 µM: 100%
KIT(L576P)
  remaining binding at 10 µM: 84%
DYRK1B
  remaining binding at 10 µM: 100%
[1]
  remaining binding at 10 µM: 86%
PRKD3
  remaining binding at 10 µM: 37%
EIF2AK1
  remaining binding at 10 µM: 98%
[2]
  remaining binding at 10 µM: 42%
PIKFYVE
  remaining binding at 10 µM: 79%
EGFR(G719S)
  remaining binding at 10 µM: 84%
AMPK-alpha1
  remaining binding at 10 µM: 86%
MARK4
  remaining binding at 10 µM: 100%
BMPR1A
  remaining binding at 10 µM: 98%
PLK1
  remaining binding at 10 µM: 82%
NEK11
  remaining binding at 10 µM: 100%
ALK
  remaining binding at 10 µM: 97%
SNARK
  remaining binding at 10 µM: 96%
TIE1
  remaining binding at 10 µM: 62%
[3]
  remaining binding at 10 µM: 90%
FLT3
  remaining binding at 10 µM: 53%
TSSK1B
  remaining binding at 10 µM: 73%
ASK2
  remaining binding at 10 µM: 78%
[4]
  remaining binding at 10 µM: 97%
PRKCI
  remaining binding at 10 µM: 100%
MET(Y1235D)
  remaining binding at 10 µM: 63%
[5]
  remaining binding at 10 µM: 100%
CDK4-cyclinD1
  remaining binding at 10 µM: 90%
CDC2L5
  remaining binding at 10 µM: 82%
[6]
  remaining binding at 10 µM: 91%
